Assay results published in US20190054035A1, “SELF-ASSEMBLED PEPTIDE NANOFIBERS AND USE THEREOF FOR TARGETED DRUG DELIVERY” (Yissum Research Development Company of the Hebrew …, priority 2017, published 2019).
“Also recorded” adds a separate entry of the source. Where a SMILES comes first, the peptide text is derived from it. The star is where a group is joined. Fmoc = O=C(OCC1c2ccccc2-c2ccccc21)*; Cbz = O=C(OCc1ccccc1)*

Assays:
[1] = Kinetics of TPS4 self-assembly by turbidity; assay type: physicochemical; settings: 0.5, 1 or 2 mg/ml, 37° C., first 5 hours
Method: Freshly prepared aliquots of 0.5, 1 or 2 mg/ml of TPS4 were placed in triplicates in a 96-well plate, 100 ul/well. Plate was placed at 37° C. in a Biotek Cytation 3 plate reader (Winooski, Vt., USA) and absorbance at 350 nm was measured every 2 minutes during 5 hours.

[2] = Self-assembly of TPSs into nanofibers, electron microscopy (TEM/SEM); assay type: physicochemical; settings: for Diameter of TPS nanofibers / self-assembly into ordered nanofibers: TEM; for Diameter of TPS nanofibers: solvent switching DMSO to water; for self-assembly into ordered nanofibers: 5 mg/ml (1 mg/ml TPS8, TPS9)
Method: Lyophilized peptides were dissolved in DMSO to a concentration of 100 mg/ml and then diluted in DDW to the indicated final concentration.
Transmission electron microscopy (TEM) analysis was performed by applying 10 μl of samples to a 200 or 400-mesh copper grids covered by carbon-stabilized Formvar film (SPI, West Chester, Pa.). The samples were allowed to adsorb for 2 minutes before excess fluid was blotted off. Samples were negatively stained by depositing 10 μl of 2% uranyl acetate on the grid and allowing it to adsorb for 2 minutes before excess fluid was blotted off. Except the sample in FIG. 9E, all samples were negatively stained. TEM micrographs were recorded using a JEOL 1200EX or JEOL JEM-1400Plus electron microscope operating at different kV.
Scanning Electron Microscopy (SEM) samples were prepared as described above for TEM on a 400-mesh copper grids, without uranyl acetate staining, and viewed using FBI Magellan™ 400L system.

cathepsin L = target: T1, cathepsin L (Homo sapiens, UniProt P07711); assay: Cleavage of substrate peptides by cathepsin L, fragment analysis by LC-MS; assay type: biochemical; settings: 3 hours at 37° C., pH 5.5, LC-MS fragment analysis
T1 construct: made in house; host or cells: E. coli BL21(DE3)pLysS
T1 sequence (P07711 18-333 limits assumed): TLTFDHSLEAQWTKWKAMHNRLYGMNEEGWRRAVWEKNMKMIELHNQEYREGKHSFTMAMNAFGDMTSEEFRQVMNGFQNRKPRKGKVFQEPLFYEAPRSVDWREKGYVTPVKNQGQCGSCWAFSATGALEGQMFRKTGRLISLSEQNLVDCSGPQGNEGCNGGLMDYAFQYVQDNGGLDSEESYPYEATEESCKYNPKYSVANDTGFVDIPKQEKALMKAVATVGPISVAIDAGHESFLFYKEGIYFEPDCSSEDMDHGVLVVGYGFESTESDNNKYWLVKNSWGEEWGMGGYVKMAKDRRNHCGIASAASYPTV
Method: (§1) Each peptide (1 nmole) was treated with […] cathepsin B or cathepsin L (generated by transformation of E. coli BL21(DE3)pLysS strain with the pET3a/procathepsin B or procathepsin L vectors) or acetate buffer vehicle (50 mM acetate, 5 mM MgCl2, 2 mM DTT, adjusted to pH 5.5) for 3 hours at 37° C. Next, enzymes were precipitated by an hour incubation at −80° C. in 80% cold methanol followed by 10 minutes of 6000 g centrifugation at 4° C. Supernatant volume was reduced to about 15 μl under vacuum, adjusted to a final volume of 30 μl with methanol and analyzed by LCMS equipped with C18 reverse phase.

[3] = tested on: lysates from mice muscles; assay: Nanofibers degradation by mice muscle lysates; assay type: biochemical; settings: 0.5 mg/ml TPS4, mice muscle lysates, first ten hours
Method: (§2) Tissue lysates were prepared as previously described. Assembly of TPS4 in triplicates was performed for 4 hours in acetate buffer as described in FIG. 6B. Next, 100 μg of lysates from 4T1 tumor or muscles, or RIPA vehicle control (1% Tergitol-type NP-40 (nonyl phenoxypolyethoxylethanol), 0.1% SDS, 0.5% sodium deoxycholate) were added in acetate buffer. The absorbance was read at 350 nm after gentle shaking at 37° C. for indicated times using a BioTek plate reader.

4T1 tumor lysates = assay: Nanofibers degradation by 4T1 tumor lysates; assay type: biochemical, mice
Method: as §2

cathepsin B [4] = target: T2, cathepsin B (Homo sapiens, UniProt P07858); assay: Cleavage of substrate peptides by cathepsin B, fragment analysis by LC-MS; assay type: biochemical; settings: 3 hours at 37° C., pH 5.5, LC-MS fragment analysis
T2 construct: made in house; host or cells: E. coli BL21(DE3)pLysS
Method: as §1

cathepsin B [5] = target: T2, cathepsin B; assay: Turbidity analysis of TPS4 nanofiber degradation by cathepsin B; assay type: biochemical; settings: 0.5, 1 and 2 mg/ml TPS4, 37° C.
Method: Turbidity analysis for TPS4 solutions was conducted using triplicates of freshly prepared solutions as described above in a 96 well plate. Aliquots of 1, 2 or 4 mg/ml were allowed to assemble for 4-5 hours at room temperature. Next, 0.064, 0.128 or 0.255 μM of cathepsin B or acetate buffer vehicle were added, diluting the samples to 0.5, 1, and 2 mg/ml, respectively. The plate was placed at 37° C. in a Biotek Synergy HT plate reader (Winooski, Vt., USA) and absorbance was measured for 12 hours as described above. After 24 hours since enzyme addition, a color picture was taken and the turbidity was measured again.

MDA-MB 231 cells = assay: TPS4 nanofibers cytotoxicity, methylene blue assay; assay type: cell-based, human; settings: 0.5 mg/ml nanofibers, 24 or 48 hours
Method: MDA-MB 231 human breast adenocarcinoma cells were cultured in Dulbecco's modified eagle's medium (DMEM) supplemented with 10% fetal bovine serum (FBS), 1% penicillin and 1% streptomycin in a humidified atmosphere of 5% CO2 at 37° C. One day prior to treatment MDA-MB 231 cells (7×10^3 cells/well) were cultured in a 96-well plate. The media of TPS4 that was assembled in DMEM was removed by centrifugation (14,000 rpm, 4° C.) and the nanofibers were resuspended in DMEM supplemented with 10% […], 1% penicillin and 1% streptomycin. Cells in triplicates were incubated with 0.5 mg/ml of TPS4 nanofibers (final concentration of 0.1% DMSO was kept constant) in growth medium at 37° C. After 24 or 48 hours of treatment, cell survival was determined by standard methylene blue assay.

Diameter of TPS nanofibers [2] [nm]	Number of amino acids removed from each TPS after cathepsin treatment, Cat L (cathepsin L)	Number of amino acids removed from each TPS after cathepsin treatment, Cat B (cathepsin B [4])	Molecule	further results
–	2	1	Ac-FFKF-amide [TPS7]	self-assembly into ordered nanofibers [2]: excluding
30 ± 6	2	–	Cbz-FFKF-NH2 [TPS8]	–
13 ± 4	–	–	Fmoc-FFKF-NH2 [TPS9]	–
66 ± 13	1	1	Fmoc-Phe-Lys-Phe-NH2 [TPS5]	–
–	2	1	NH2-FFKF-amide [TPS6]	self-assembly into ordered nanofibers [2]: excluding

Second part, the molecule before the results:

Molecule	Diameter of TPS nanofibers [2] [nm]	Number of amino acids removed from each TPS after cathepsin treatment, Cat L (cathepsin L)	Number of amino acids removed from each TPS after cathepsin treatment, Cat B (cathepsin B [4])	further results
NCCCC[C@H](NC(=O)[C@H](Cc1ccccc1)NC(=O)[C@H](Cc1ccccc1)NC(=O)OCc1ccccc1)C(=O)N[C@@H](Cc1ccccc1)C(=O)O [TPS4, Cbz-FFKF-OH] (Cbz-FFKF-OH)	24 ± 6	2	2	increase in turbidity (absorbance at 350 nm) during self-assembly [1]: up to 2.8±0.6 folds; time to form fibers upon assembly initiation ([2]; microscopic examination (data not shown)): instantly formed fibers; nanofiber degradation over time [3]: limited effect; nanofiber degradation over time (4T1 tumor lysates; 0.5 mg/ml TPS4, 4T1 tumor lysates, turbidity at 350 nm): degraded the majority of TPS4 nanofibers within two hours; remaining nanofibers relative to vehicle (absorbance at 350 nm) (4T1 tumor lysates; overnight lysate treatment, all concentrations tested): less than 20%; nanofiber degradation at the lowest concentration (4T1 tumor lysates; overnight lysate treatment, lowest TPS4 concentration): full degradation; degradation of assembled nanofibers by cathepsin B (turbidity at 350 nm) (cathepsin B [5]): significant and robust degradation; cytotoxicity / growth inhibition (MDA-MB 231 cells): no growth inhibition; also recorded: no cytotoxicity
Ac-FFKF-OH [TPS2]	12 ± 1	2	2	–
Fmoc-FFKF-OH (SMILES NCCCC[C@H](NC(=O)[C@H](Cc1ccccc1)NC(=O)[C@H](Cc1ccccc1)NC(=O)OCC1c2ccccc2-c2ccccc21)C(=O)N[C@@H](Cc1ccccc1)C(=O)O) [TPS3]	14 ± 2	2	–	–
NH2-FFKF-OH (H-FFKF-OH) [TPS1]	310 ± 80	2	1	–
